Laboratory results as given in article PMC11584562 (The Journal of Biological Chemistry, 2024).
One block for each molecule: values may come before it.

How the values were obtained:
CnAcs1 [1] = molecular target: T1, CnAcs1 (Cryptococcus neoformans, UniProt J9VFT1); assay: biochemical
T1 sequence (J9VFT1 1-680): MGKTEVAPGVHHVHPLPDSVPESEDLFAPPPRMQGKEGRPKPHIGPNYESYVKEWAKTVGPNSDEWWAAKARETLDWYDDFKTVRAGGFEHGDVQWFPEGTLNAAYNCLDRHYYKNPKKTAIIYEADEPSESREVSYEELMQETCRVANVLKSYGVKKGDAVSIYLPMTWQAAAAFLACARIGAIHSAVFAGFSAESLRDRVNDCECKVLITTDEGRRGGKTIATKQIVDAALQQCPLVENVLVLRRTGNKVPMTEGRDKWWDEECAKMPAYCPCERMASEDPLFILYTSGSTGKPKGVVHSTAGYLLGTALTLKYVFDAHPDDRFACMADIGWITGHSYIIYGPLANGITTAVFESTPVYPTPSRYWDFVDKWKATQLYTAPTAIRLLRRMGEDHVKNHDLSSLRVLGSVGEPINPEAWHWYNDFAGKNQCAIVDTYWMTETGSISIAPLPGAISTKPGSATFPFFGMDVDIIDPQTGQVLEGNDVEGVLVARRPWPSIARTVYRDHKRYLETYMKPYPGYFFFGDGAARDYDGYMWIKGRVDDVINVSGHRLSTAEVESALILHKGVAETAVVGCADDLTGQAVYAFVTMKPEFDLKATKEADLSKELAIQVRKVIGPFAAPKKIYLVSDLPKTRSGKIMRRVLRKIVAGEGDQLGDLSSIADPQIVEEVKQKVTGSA

CnKbc1 [2] = molecular target: T2, CnKbc1 (Cryptococcus neoformans, UniProt J9VT24); assay: biochemical
T2 sequence (J9VT24 1-696): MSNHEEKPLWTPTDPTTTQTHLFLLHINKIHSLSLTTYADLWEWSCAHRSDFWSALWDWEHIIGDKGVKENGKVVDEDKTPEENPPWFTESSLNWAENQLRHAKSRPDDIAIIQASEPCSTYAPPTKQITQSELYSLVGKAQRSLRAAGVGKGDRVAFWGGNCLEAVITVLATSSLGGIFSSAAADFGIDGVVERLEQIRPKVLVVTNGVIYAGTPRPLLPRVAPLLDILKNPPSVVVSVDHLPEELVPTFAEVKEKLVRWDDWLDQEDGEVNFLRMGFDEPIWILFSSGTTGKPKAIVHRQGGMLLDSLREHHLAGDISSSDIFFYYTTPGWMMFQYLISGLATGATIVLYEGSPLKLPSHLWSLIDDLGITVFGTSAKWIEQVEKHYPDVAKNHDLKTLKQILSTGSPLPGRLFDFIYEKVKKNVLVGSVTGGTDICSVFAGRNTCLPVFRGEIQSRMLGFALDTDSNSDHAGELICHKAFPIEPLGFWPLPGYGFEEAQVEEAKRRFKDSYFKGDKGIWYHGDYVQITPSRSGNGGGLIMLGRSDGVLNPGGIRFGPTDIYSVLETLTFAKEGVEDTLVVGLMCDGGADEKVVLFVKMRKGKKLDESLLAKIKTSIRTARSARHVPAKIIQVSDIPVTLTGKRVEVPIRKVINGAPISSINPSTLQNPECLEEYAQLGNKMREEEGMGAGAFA

LiAcs1 [3] = molecular target: T3, LiAcs1 (Leishmania infantum, UniProt A4I093); assay: EnzChek pyrophosphate-release coupled assay; assay type: biochemical
T3 sequence (A4I093 1-705): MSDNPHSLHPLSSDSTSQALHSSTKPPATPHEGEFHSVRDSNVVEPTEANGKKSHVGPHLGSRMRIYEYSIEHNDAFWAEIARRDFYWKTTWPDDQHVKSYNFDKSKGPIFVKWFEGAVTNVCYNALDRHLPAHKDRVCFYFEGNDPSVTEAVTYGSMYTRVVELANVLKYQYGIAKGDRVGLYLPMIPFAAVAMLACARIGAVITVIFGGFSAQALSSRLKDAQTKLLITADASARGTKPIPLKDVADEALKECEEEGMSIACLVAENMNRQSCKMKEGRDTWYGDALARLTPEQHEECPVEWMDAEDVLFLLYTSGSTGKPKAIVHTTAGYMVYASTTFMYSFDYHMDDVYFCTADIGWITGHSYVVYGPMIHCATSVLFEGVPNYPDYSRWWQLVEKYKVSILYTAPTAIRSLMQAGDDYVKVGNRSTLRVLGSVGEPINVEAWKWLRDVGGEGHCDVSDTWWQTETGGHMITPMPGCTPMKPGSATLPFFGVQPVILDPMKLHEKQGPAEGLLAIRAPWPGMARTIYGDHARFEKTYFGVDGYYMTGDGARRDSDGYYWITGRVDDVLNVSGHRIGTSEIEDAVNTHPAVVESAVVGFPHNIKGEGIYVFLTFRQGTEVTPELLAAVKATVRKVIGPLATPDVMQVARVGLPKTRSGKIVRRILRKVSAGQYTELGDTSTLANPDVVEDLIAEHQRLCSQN

CnAcs1 [4] = molecular target: T1, CnAcs1; assay: EnzChek pyrophosphate-release coupled assay; assay type: biochemical
LiAcs1 [5] = molecular target: T3, LiAcs1; assay: biochemical
CnKbc1 [6] = molecular target: T2, CnKbc1; assay: EnzChek pyrophosphate-release coupled assay; assay type: biochemical
CnAcs1 [7] = molecular target: T1, CnAcs1; assay: biochemical; remark: listed apart in the source
LiAcs1 [8] = molecular target: T3, LiAcs1; assay: biochemical; remark: listed apart in the source
CnKbc1 [9] = molecular target: T2, CnKbc1; assay: biochemical; remark: listed apart in the source
[10] = substrate: CC(=O)O; assay: EnzChek pyrophosphate-release coupled assay; assay type: biochemical, Leishmania infantum; settings: ATP and CoA as co-substrates, 4 mM MgCl2, 37 °C
[11] = substrate: CC(=O)CC(=O)O; assay: EnzChek pyrophosphate-release coupled assay; assay type: biochemical, Leishmania infantum; settings: ATP and CoA as co-substrates, 4 mM MgCl2, 37 °C

IC50 (LiAcs1 [5]): > 100 µM
IC50 (CnAcs1 [1]): > 100 µM
IC50 (CnKbc1 [6]): 7.8 µM
Molecule: CCCCOP(=O)(O)OC[C@H]1O[C@@H](n2cnc3c(N)ncnc32)[C@H](O)[C@@H]1O [viii, Butyl-AMP]

IC50 (CnKbc1 [2]): > 100 µM
IC50 (LiAcs1 [3]): 6.7 µM
IC50 (CnAcs1 [4]): 25.3 µM
Molecule: CC(C)OP(=O)(O)OC[C@H]1O[C@@H](n2cnc3c(N)ncnc32)[C@H](O)[C@@H]1O [v, Isopropyl-AMP]

IC50 (CnKbc1 [2]): > 100 µM
IC50 (LiAcs1 [3]): 13.5 µM
IC50 (CnAcs1 [4]): 21.1 µM
Molecule: CCCOP(=O)(O)OC[C@H]1O[C@@H](n2cnc3c(N)ncnc32)[C@H](O)[C@@H]1O [iv, Propyl-AMP]

More lines, now with the values behind:

Molecule: COP(=O)(O)OC[C@H]1O[C@@H](n2cnc3c(N)ncnc32)[C@H](O)[C@@H]1O [i, Methyl-AMP]
IC50 (CnAcs1 [1]): > 100 µM
IC50 (CnKbc1 [2]): > 100 µM
IC50 (LiAcs1 [3]): 69.9 µM

Molecule: C=CCOP(=O)(O)OC[C@H]1O[C@@H](n2cnc3c(N)ncnc32)[C@H](O)[C@@H]1O [vi, Allyl-AMP]
IC50 (CnKbc1 [2]): > 100 µM
IC50 (LiAcs1 [3]): 12.5 µM
IC50 (CnAcs1 [4]): 41 µM

Molecule: Nc1ncnc2c1ncn2[C@@H]1O[C@H](COP(=O)(O)OC2CC2)[C@@H](O)[C@H]1O [iii, Cyclopropyl-AMP]
IC50 (CnKbc1 [2]): > 100 µM
IC50 (LiAcs1 [3]): 2.2 µM
IC50 (CnAcs1 [4]): 8.7 µM

Molecule: C#CCOP(=O)(O)OC[C@H]1O[C@@H](n2cnc3c(N)ncnc32)[C@H](O)[C@@H]1O [vii, Propargyl-AMP]
IC50 (CnKbc1 [2]): > 100 µM
IC50 (LiAcs1 [3]): 10.2 µM
IC50 (CnAcs1 [4]): 55.1 µM

Molecule: Nc1ncnc2c1ncn2[C@@H]1O[C@H](COP(=O)(O)OC2CCCC2)[C@@H](O)[C@H]1O [x, Cyclopentyl-AMP]
IC50 (CnAcs1 [7]): > 100 µM
IC50 (LiAcs1 [8]): > 100 µM
IC50 (CnKbc1 [9]): > 100 µM

Molecule: CCOP(=O)(O)OC[C@H]1O[C@@H](n2cnc3c(N)ncnc32)[C@H](O)[C@@H]1O [ii, Ethyl-AMP]
IC50 (CnKbc1 [6]): > 100 µM
IC50 (LiAcs1 [3]): 2 µM
IC50 (CnAcs1 [4]): 8 µM

B1: LiAcs1 (Leishmania infantum) (protein)
chain: T3 sequence (A4I093 1-705)
Km [10]: 61 (95% CI 45, 83) μM
Km [11]: 88 (95% CI 71, 110) μM
